The test system of series [1] is diet-induced obese (DIO) mice. In words: Oral glucose tolerance test (OGTT) in diet-induced obese mice. The format is in vivo, mouse. The conditions noted are these: for glucose lowering effects in OGTT (glucose AUC): DIO C57BL/6 mice, 125 mg/kg i.p. once daily for 5 days. From the text:
High-fat diet feeding in rodents changes multiple biochemical and physiological parameters that reflect the biochemical and physiological changes observed in diet induced obesity (D10). Such diets induce dramatic changes in weight gain that are concomitant with elevations in serum cholesterol, lipids, and triglycerides. Moreover, these high fat diets can lead to atherosclerotic lesions as well as insulin resistance and dysregulation of glucose homeostatic mechanisms that are consistent with obesity induced changes in humans.
Type II diabetes is characterized by high blood glucose levels in the presence of normal amounts of insulin. The animal model or type II diabetes used in these studies involves administering high levels of glucose and then measuring blood glucose levels over time. The test is designed to determine the ability of the experimental animal to maintain glucose homeostasis over time. Drugs that lower blood glucose levels in type II diabetic patients also lower blood glucose levels in this animal model of type II diabetes.
Male C57BL/6J mice were fed a high fat diet for 5 weeks (age 6-11 weeks) prior to study. […] DIO mice were food deprived overnight prior to glucose load (1.5 g/kg, t0). Mice were treated with drug or vehicle 30 minutes before glucose load (t-30). Blood glucose was measured with a glucometer (Accu-Chek® Roche, Indianapolis, IN), from the tip of the tail in free moving mice, at 15 minutes before (t-15), 15 minutes after (t15), and 45 minutes after (t45) glucose load.
In these studies, C57BL/6 mice were fed a high fat diet from 6 to 11 weeks of age, resulting in diet-induced obesity. […] After 5 days of dosing, animals were fasted overnight prior to an oral glucose tolerance test (OGTT). The morning after fasting, a baseline glucose level was measured, followed by compound or vehicle dosing. A second blood glucose level was measured 15 minutes later. At 30 minutes past the first glucose measurement, animals were challenged with a 1.5 g/kg glucose solution per os (p.o.), and blood glucose levels determined 15 and 45 minutes later. Areas under the curve were determined for the blood glucose levels, baselined at the first measurement.

Series [2] is described as follows: Body weight of DIO mice during 15-day treatment. The format is in vivo, mouse. The settings on record: either time-point or dose (data not shown).
Series [3] addresses Kir6.2/SUR1 potassium channels (Homo sapiens, UniProt Q09428+Q14654). In words: Kir6.2/SUR1 potassium channel patch clamp (PatchXpress) in HEK293 cells. On the technique in general: Patch clamp records ionic current or voltage across a cell membrane.
Text: Inhibition is represented as % of control. “ns” represents not statistically significant or P>0.05.
Series [4] has as its target T1, human recombinant dipeptidyl dipeptidase-4 (DPP4) (Homo sapiens, UniProt P27487).
T1 construct: Cerep (contract laboratory that ran the assay)
In words: Human recombinant DPP4 assay with fluorogenic substrate GP-AMC. The format is biochemical. The conditions noted are these: 10 μM; % of control; ns. The method, then:
DPP4 inhibitor K579 was used as a positive control. Assay was performed by Cerep (Bois l'Eveque, France).
Inhibition is represented as % of control.

The next series has as its system serum prolactin levels. The settings on record: rat, cited from earlier work; for increase in serum prolactin levels: marker of dopamine D2 receptor blockade.
The test system of series [5] is circulating prolactin levels. In words: Prolactin assay (plasma prolactin ELISA after OGTT). The format is in vivo, mouse. The conditions noted are these: DIO mice, once daily i.p. for 5 days, plasma 45 min after glucose load. The method, then:
Mice were treated with drug or vehicle 30 minutes before an OGTT (t-30). At 45 minutes after glucose load (t45), mice were bled via retro-orbital sinus into EDTA microfuge tubes. Plasma was rapidly prepared and stored at −80° C. until measurement of prolactin levels (ELISA kit, Genway Biotech, San Diego, Calif.).

Series [6] can be described thus: Pharmacokinetic analysis in mice (plasma, LC/MS/MS). In kind it is in vivo, mouse. The conditions noted are these: normal male mice, 10 mg/kg i.p. The method, then:
Male C57B1/6 mice (n =4, two cohorts) were treated with drug and at the designated times after dosing (5, 15, 30, 60 and 120), whole blood was collected via the retro-orbital sinus in heparanized tubes and plasma prepared by centrifugation at 1650 relative centrifugal force (RCF) at 4° C. Plasma samples were extracted by a standard protocol using an acetonitrile/protein precipitation method, and levels of test agent were analyzed by LC/MS/MS.

The next series has as its system active GLP-1. Nature of the series: Active GLP-1 in hepatoportal vein blood of normal mice. The conditions noted are these: 10 mg/kg i.p., 15 min after glucose bolus. The format is in vivo, mouse. Here is the method:
(§1) Normal male 12 week old C57BL/6J mice were food deprived 6 hours before the glucose load (1.5 g/kg, t0). Mice were treated with drug or vehicle 30 minutes before glucose load (t-30). Blood glucose was measured with a glucometer (Accu-Chek® Roche, Nutley, N.J.), from the tip of the tail in free moving mice, at t-30, t0, t15, t30, t60, t90, t120 minutes. Blood collection (about 20 μl) was performed from the tip of the tail at t-30, t15 and t30 for plasma insulin determination (ELISA kit, Alpco Diagnostics, Salem, N.H.). After a 1-week washout period, mice were randomly allocated into 2 groups. Mice were food deprived 6 hours before the glucose load (1.5 g/kg, t0) was performed. Mice were treated with drug or vehicle 30 minutes before glucose load. Blood glucose was measured at t0 and t15 minutes. At t15, mice were anesthetized with isoflurane and blood was collected from the hepatoportal vein (on EDTA/diprotin/ aprotinin anticoagulant cocktail). Plasma was rapidly prepared and stored at -80° C. The active form of GLP-1 was then measured (ELISA kit, Millipore, Billerica, Mass.).

The next series concerns dopamine D2/D3 receptors. The conditions noted are these: in-vitro assays; cited from earlier work.
The test system of another series is normal mice. Nature of the series: OGTT with plasma insulin determination in normal mice. In kind it is in vivo, mouse. The conditions noted are these: single dose 10 mg/kg i.p. Here is the method:
as §1

Each structure is given as a SMILES string.

Kir6.2/SUR1 potassium channels, sequence (Q14654 whole entry): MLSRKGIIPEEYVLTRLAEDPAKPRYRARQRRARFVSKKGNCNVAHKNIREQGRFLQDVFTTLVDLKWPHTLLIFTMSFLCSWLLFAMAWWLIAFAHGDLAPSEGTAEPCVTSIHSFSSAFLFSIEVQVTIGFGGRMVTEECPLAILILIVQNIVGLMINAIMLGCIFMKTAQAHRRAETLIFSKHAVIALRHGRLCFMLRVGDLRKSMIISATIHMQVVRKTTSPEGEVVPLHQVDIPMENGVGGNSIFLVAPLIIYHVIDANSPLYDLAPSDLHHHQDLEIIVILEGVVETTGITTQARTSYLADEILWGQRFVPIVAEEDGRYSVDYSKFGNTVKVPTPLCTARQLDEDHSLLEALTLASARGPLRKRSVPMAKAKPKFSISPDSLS
Kir6.2/SUR1 potassium channels, sequence (Q09428 whole entry): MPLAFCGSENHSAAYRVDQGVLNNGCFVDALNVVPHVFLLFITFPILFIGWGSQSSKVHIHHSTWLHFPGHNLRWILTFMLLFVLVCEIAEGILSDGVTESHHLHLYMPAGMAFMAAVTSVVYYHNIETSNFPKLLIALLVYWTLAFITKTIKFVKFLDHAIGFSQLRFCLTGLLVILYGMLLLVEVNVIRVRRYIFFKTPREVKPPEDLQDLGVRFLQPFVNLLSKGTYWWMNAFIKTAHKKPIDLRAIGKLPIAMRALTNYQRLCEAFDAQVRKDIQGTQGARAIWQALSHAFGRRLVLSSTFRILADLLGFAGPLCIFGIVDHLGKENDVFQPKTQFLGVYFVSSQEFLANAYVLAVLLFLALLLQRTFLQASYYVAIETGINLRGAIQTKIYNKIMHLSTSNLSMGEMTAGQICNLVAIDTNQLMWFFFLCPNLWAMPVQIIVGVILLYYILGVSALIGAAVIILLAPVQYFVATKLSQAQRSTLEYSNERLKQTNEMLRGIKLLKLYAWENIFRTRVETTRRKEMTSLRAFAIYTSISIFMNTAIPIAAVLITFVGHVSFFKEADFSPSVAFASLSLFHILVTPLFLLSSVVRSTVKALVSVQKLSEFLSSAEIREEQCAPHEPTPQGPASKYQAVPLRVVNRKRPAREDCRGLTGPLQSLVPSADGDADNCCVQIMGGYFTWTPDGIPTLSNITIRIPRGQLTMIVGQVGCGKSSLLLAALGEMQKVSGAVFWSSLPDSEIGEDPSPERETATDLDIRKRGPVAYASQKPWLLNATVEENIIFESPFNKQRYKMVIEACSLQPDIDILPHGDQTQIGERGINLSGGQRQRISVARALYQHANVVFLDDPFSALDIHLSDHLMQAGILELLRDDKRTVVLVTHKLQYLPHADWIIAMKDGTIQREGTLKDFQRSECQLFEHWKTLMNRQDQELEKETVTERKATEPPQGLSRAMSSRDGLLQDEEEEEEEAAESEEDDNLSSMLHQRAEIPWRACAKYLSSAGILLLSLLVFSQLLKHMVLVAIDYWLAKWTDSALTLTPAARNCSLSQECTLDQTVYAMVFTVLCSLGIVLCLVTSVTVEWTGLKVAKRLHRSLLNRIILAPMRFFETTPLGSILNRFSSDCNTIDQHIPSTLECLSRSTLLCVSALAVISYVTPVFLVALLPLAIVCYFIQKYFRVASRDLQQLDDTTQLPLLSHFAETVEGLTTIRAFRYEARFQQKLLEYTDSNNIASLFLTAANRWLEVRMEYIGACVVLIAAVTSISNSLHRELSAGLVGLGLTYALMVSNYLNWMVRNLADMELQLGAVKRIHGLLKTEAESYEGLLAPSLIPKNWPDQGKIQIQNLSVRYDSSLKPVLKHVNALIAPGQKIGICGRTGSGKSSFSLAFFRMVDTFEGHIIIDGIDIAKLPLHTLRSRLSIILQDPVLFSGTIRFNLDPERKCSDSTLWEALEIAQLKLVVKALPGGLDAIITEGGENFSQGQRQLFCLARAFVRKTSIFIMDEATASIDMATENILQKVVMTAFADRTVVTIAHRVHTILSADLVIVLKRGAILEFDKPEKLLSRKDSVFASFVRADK
T1 sequence (P27487 whole entry): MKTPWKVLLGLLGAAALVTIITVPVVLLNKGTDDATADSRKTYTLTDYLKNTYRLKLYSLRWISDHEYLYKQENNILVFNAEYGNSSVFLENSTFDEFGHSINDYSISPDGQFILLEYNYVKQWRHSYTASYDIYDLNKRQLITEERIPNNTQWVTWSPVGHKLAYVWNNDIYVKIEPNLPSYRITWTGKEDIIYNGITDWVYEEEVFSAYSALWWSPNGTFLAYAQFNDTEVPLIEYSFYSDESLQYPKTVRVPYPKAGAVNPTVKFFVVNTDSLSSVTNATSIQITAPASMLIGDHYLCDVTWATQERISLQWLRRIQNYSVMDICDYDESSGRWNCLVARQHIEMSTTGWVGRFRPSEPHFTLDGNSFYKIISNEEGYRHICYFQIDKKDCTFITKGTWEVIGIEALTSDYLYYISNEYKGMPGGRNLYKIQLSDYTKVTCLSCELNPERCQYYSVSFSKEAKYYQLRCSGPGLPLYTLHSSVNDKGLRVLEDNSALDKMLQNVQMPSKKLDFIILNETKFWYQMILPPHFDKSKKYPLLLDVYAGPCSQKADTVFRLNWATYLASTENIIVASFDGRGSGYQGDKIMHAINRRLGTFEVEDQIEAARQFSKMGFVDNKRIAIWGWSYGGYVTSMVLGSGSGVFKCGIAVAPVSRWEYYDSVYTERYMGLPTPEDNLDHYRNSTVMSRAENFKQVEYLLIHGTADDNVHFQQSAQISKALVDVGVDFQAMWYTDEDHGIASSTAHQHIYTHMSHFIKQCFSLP

With `CCN1CCCC1CNC(=O)c1cc(S(N)(=O)=O)ccc1OC` (racemic) [(R/S)-sulpride], the “glucose lowering effects in OGTT (glucose AUC)” value in [1] is on record as “glucose lowering effects”.

With `CCN1CCCC1CNC(=O)c1cc(S(=O)(=O)CC)c(N)cc1OC` (racemic) [(R/S)-amisulpride, amisulpride], the “changes in body weight” value in series [2] is “No changes”. Further, the “% inhibition of Kir6.2/SUR1” value in series [3] (10 μM, HEK293 cells, channel activated with 300 μM diazoxide, % of control, ns) is on record as 3.4 (2.4) %. In addition, the “effect on the sulphonylurea receptor in-vitro” value in series [3] (in-vitro (Table 5)) is on record as “unaffected”. Besides, the “glucose lowering effects in OGTT (glucose AUC)” value in [1] is given as “glucose lowering effects”. In addition, the “fasting blood glucose levels” value in series [1] (DIO mice, 20 mg/kg, following 5 days of treatment, P<0.05 vs vehicle) stood at 158.7 ± 7.5 mg/dL. Further, in [1] (DIO mice, once daily i.p. for 15 days, both amisulpride doses, OGTT on days 5 and 15), the “glucose excursion during the OGTT” value is “significant reduction”. The “% inhibition of DPP4” value in series [4] was 1.9 (2.0) %.

In the case of `CCN1CCC[C@@H]1CNC(=O)c1cc(S(=O)(=O)CC)c(N)cc1OC` [(R)-amisulpride, (R)(+)-amisulpride], in the series on serum prolactin levels, the “increase in serum prolactin levels” value is on record as 1 fold and the “increase in ED50 required to reach maximal effect on prolactin, compared to (S)-amisulpride” value was 40 fold. In addition, in series [5], the “ED50 for effect on circulating prolactin levels” value is 1.5 mg/kg. The “maximal plasma drug levels” value in series [6] is “did not exceed concentrations used in the in vitro assays”. Further, the “active form GLP-1 levels from the hepatic portal vein” value in the series with active GLP-1 is on record as “unchanged”. Also, the “times less potent than (S)-amisulpride in displacing dopamine D2/D3 receptor ligands” value with dopamine D2/D3 receptors is recorded as 20-40 times. Moreover, the “increase in circulating insulin levels compared to vehicle” value in the series on normal mice (OGTT) was “approximately 2.5 fold”. Besides, in the series with normal mice (vs vehicle), the glucose excursions entry is reported as “significantly decreased”.

Take `CCN1CCC[C@H]1CNC(=O)c1cc(S(=O)(=O)CC)c(N)cc1OC` [(S)-amisulpride, (S)(−)-amisulpride]: the “increase in serum prolactin levels” value with serum prolactin levels was 4 fold. Also, the “ED50 for effect on circulating prolactin levels” value in series [5] turned out to be 0.01 mg/kg.

These data come from patent publication US20150018360A1, “COMPOSITIONS AND METHODS FOR TREATING METABOLIC DISORDERS” (BIOMED VALLEY DISCOVERIES, INC., priority 2011, published 2015).
